Five molecules from US20210317141A1, “OXOPYRIDO[1,2-A]PYRIMIDINE COMPOUNDS FOR THE TREATMENT AND PROPHYLAXIS OF BACTERIAL INFECTION” (Hoffmann-La Roche Inc., priority 2018, published 2021) can be followed below.

One may read the IC50 as the midpoint of a concentration-inhibition curve. By thermodynamic solubility is commonly meant the concentration in solution at equilibrium with solid. Broadly, the CC50 is the concentration giving 50% cytotoxicity. Read a low CC50 as greater toxicity to the cells.

One series concerns E. coli (BW25113). Description: 50% growth inhibitory concentration (IC50) determination assay, E. coli. The series is classed as cell-based. Conditions: Escherichia coli, growth inhibition, Iso-Sensitest broth, OD 600 nm over 16 h, 35±2° C., read-out: IC50 (μM) E. coli K12 BW25113. How it is done:
(§1) The in vitro antimicrobial activity of the compounds against E. coli (BW25113, obtained from Coli Genetic Stock Center, #7636) and K. pneumoniae (ATCC10031) was determined according to the following procedure:
(§2) The assay used a 10-points Iso-Sensitest broth medium to measure quantitatively the in vitro activity of the compounds against E. coli BW25113 and K. pneumoniae ATCC 10031.
(§3) Stock compounds in DMSO were serially two-fold diluted (range from 50 to 0.097 μM final concentration) in 384 wells microtiter plates and inoculated with 49 μL the bacterial suspension in Iso-Sensitest broth medium to have a final cell concentration of ˜5×10^5 CFU/mL in a final volume/well of 50 μL/well. Microtiter plates were incubated at 35±2° C.
(§4) Bacterial cell growth was determined with the measurement of optical density at k=600 nm each 20 minutes over a time course of 16 h.
(§5) Growth inhibition was calculated during the logarithmic growth of the bacterial cells with determination of the concentration inhibiting 50% (IC50) of the growth.

In series [1] the test system is K. pneumoniae (ATCC10031). Nature of the series: 50% growth inhibitory concentration (IC50) determination assay, K. pneumoniae. It is filed as cell-based. The note with it: Klebsiella pneumoniae, growth inhibition, Iso-Sensitest broth, OD 600 nm over 16 h, * = detection limit. How it is done:
as §1, §2, §3, §4, §5

A further series concerns E. coli (ATCC 25922). Description: Minimal Inhibitory Concentration (MIC) assay. The series is classed as cell-based. The note with it: Escherichia coli, ATCC25922; CAMHB, 20 hours at 35° C.; read-out: MIC (μg/mL) E. coli ATCC 25922. On the procedure:
The in vitro potency of compounds to inhibit E. coli (ATCC 25922) growth was assessed by MIC (Minimal Inhibitory Concentration) assay. Samples were prepared from 10 mM DMSO stock solutions. After serial 2-fold dilution in DMSO in a master plate (Greiner, Cat No: 651201), 180 μL sterile distilled water was added to 20 μL each aliquot of the samples. Then […], diluted compounds were transferred into a new assay plate (Costar, 3599).
The growth medium […] Mueller Hinton Broth (CAMHB) was prepared by adding the 20 mg per liter CaCl2) and 20 mg per liter MgCl2 into the MHB medium (Jianglai Company, sterilized).
Vials of each of the test microorganisms were maintained frozen in the vapor phase of a liquid nitrogen freezer. Took out the bacteria E. coli ATCC 25922 (KWIKSTIK, 0335K) from liquid nitrogen freezer, thawed it in room temperature, and diluted the bacterial in the CAMHB medium to achieve a final inoculum of 5×10^5 CFU/mL. 90 μL CAMHB with bacteria was dispensed to the assay plate and pipetted 5 times.
Then the assay plates were incubated for 20 hours at 35° C. in ambient air. Following incubation, the MIC (μg/mL), the lowest concentration of drug that inhibits visible growth of the microorganism was read and recorded throw the microscope.

Series [2] is described as follows: Lyophilisation solubility assay (LYSA). The series is classed as physicochemical. The note with it: aqueous buffer, thermodynamic from solid; 0.05 M phosphate buffer, pH 6.5; * = detection limit. On the procedure: The solubility of compounds of present invention was assessed by LYSA assay. Samples were prepared in duplicate from 10 mM DMSO stock solutions (20 μL) diluted in 30 μL pure DMSO. After evaporation of DMSO with a centrifugal vacuum evaporator, the residue was dissolved in 0.05 M phosphate buffer (150 μL, pH 6.5), stirred for one hour and shook for two hours. After one night, the solution was filtered using a microtiter filter plate. Then the filtrate and its 1/10 dilution were analyzed by HPLC-UV. In addition, a four-point calibration curve was prepared from the 10 mM stock solutions and used for the solubility determination of the compounds.

Series [3] in a line: Cytotoxicity assay (HepG2, CellTiter-Blue). It is filed as cell-based. Conditions: human, HepG2 cells, 3 days treatment. On the procedure: The cytotoxicity of compounds of present invention was assessed by HepG2 assay. HepG2 cells (ATCC HB-8065™) were seeded into 96-well plates (1.2×10^4 cells per well) and treated with compounds for 3 days, cell viability was measured at day 3 post compound treatment using the CellTiter-Blue® Cell Viability Assay (Promega, Cat. No. G8082). 20 μL of Cell titer blue buffer were added to each well of the cells, incubated for 3 hours at 37° C., and the fluorescence value was measured by a plate reader (Molecular Device SpectraMax M2). The CC50 value of each compound is plotted with GraphPad Prism using four parameter logistic equation.
In general terms: Alamar Blue is a resazurin reagent that responds to reducing activity.

Molecules are shown by their SMILES. ≈ marks a conversion by molar mass, not a printed value.

With `CNc1cc(F)c(F)c2c1[nH]c1ncc(-c3cc(OC)c4ncc(C(=O)O)c(=O)n4c3)c(N(C)C)c12` [Example 1.03, 7-[4-(Dimethylamino)-5,6-difluoro-8-(methylamino)-9H-pyrido[2,3-b]indol-3-yl]-9-methoxy-4-oxo-pyrido[1,2-a]pyrimidine-3-carboxylic acid], the figures for the 50% inhibitory concentration (IC50) (in the series with E. coli (BW25113); in series [1]) were 2.71 µM and 0.114 µM, respectively. The MIC in the series with E. coli (ATCC 25922) stood at 0.682 µg/mL (≈ 1.38 µM). In addition, the solubility (thermodynamic) in series [2] is 54 µg/mL (≈ 109 µM). Besides, in series [3], the CC50 at 3 days is > 100000 nM.

`CNc1cc(F)c(F)c2c1[nH]c1ncc(-c3ccc4ncc(C(=O)O)c(=O)n4c3)c(N3CCOCC3)c12` [Example 1.10, 7-(5,6-Difluoro-8-(methylamino)-4-morpholino-9H-pyrido[2,3-b]indol-3-yl)-4-oxo-4H-pyrido[1,2-a]pyrimidine-3-carboxylic acid]: the IC50 was 3.58 µM in the series on E. coli (BW25113) and ≤ 0.098 µM in series [1]. Besides, the MIC with E. coli (ATCC 25922) came out at 0.017 µg/mL (≈ 0.0336 µM). In series [2], this molecule displayed a thermodynamic solubility of 63 µg/mL (≈ 124 µM). In series [3], the CC50 at 3 days was > 100000 nM.

In the case of `CNc1c(F)c(F)cc2c1[nH]c1ncc(-c3ccc4ncc(C(=O)O)c(=O)n4c3)c(N3CCOCC3)c12` [Example 1.13, 7-(6,7-Difluoro-8-(methylamino)-4-morpholino-9H-pyrido[2,3-b]indol-3-yl)-4-oxo-4H-pyrido[1,2-a]pyrimidine-3-carboxylic acid], the values for the IC50 (in the series with E. coli (BW25113); in series [1]) were 2.86 µM and ≤ 0.098 µM, respectively. For the same molecule, in the series with E. coli (ATCC 25922), the MIC was determined as 0.0909 µg/mL (≈ 0.179 µM). For the same molecule, the solubility (thermodynamic) in series [2] came to 162 µg/mL (≈ 320 µM). The same molecule displayed a CC50 at 3 days in series [3] of 80100 nM.

With `CNc1cc(F)c(F)c2c1[nH]c1ncc(-c3ccc4ncc(C(=O)O)c(=O)n4c3)c(N(C)CCOC)c12` [Example 1.24, 7-(5,6-Difluoro-4-((2-methoxyethyl)(methyl)amino)-8-(methylamino)-9H-pyrido[2,3-b]indol-3-yl)-4-oxo-4H-pyrido[1,2-a]pyrimidine-3-carboxylic acid], the IC50 in the series with E. coli (BW25113) was determined as 2.23 µM; in series [1], 0.105 µM. The molecule also gave a thermodynamic solubility in series [2] of 22 µg/mL (≈ 43.3 µM). Also, in series [3], the midpoint of cytotoxicity, the CC50 at 3 days, lay at 71000 nM.

`CNc1cc(F)cc2c1[nH]c1nc(Oc3cnc(C)nc3)nc(N3C[C@H]4C[C@@H]3C[C@H]4C)c12` [GP-6, reference compound]: the IC50 in the series with E. coli (BW25113) is 0.17 µM; in series [1], ≤ 0.098 µM. The MIC in the series on E. coli (ATCC 25922) worked out at 0.127 µg/mL (≈ 0.293 µM). In addition, the thermodynamic solubility in series [2] was < 1 µg/mL. The molecule further yielded a 50% cytotoxic concentration (CC50) at 3 days in series [3] of 5600 nM.
